Results from patent US20100267796A1, “THERAPEUTIC AGENT FOR IRRITABLE BOWEL SYNDROME” (KYOWA HAKKO KOGYO CO., LTD., priority 2006, published 2010).

What was measured:
[1] = system: adenosine uptake in HEK293 cells; assay: Adenosine uptake inhibitory activity in HEK293 cells ([3H]adenosine uptake); assay type: cell-based; conditions: for activity at 0.05 µM: 50 nmol/L compound, n=2; for activity at 0.5 µM: 500 nmol/L compound
Method: A test was conducted according to the method of Leung et al. [Biochemical Pharmacology, Vol. 70, pp. 355-362 (2005)]. HEK293 cells (ATCC, Registration No. CRL-1537) were subcultured in a Dulbecco's modified Eagle's medium (manufactured by Invitrogen Corporation) containing 10% of fatal calf serum in a CO2 incubator using a poly-L-lysine-coated 10-cm dish (manufactured by Asahi Techno Glass Corporation). The cultured cells were seeded in a poly-L-lysine-coated 24-well plate (manufactured by Asahi Techno Glass Corporation) and cultured until the cells become confluent. […] After incubation at room temperature for 15 minutes, 0.2 mL of a Na^+-free buffer containing 100 nmol/L of [^3H] adenosine (manufactured by GE Health Care Bioscience Corporation) and each compound at each of 50 nmol/L and 500 nmol/L was added to each well. After 1 minute, the reaction solution was removed with an aspirator, and the wells were washed twice with 0.5 mL of ice-cooled PBS (phosphate-buffered saline). Then, 0.5 mL of PBS containing 5% Triton X-100 was added to each well, and the cells were scraped with a scraper. The solution in each well was homogenized by passing through a 20 G injection needle ten times and transferred to a scintillation vial containing 4 mL of clear sol (manufactured by Nacalai Tesque Inc.). Further, the wells were washed with 0.5 mL of PBS containing 5% Triton X-100, and the washing solution was added to the same vial. After sufficient agitation, radioactivity was measured using a liquid scintillation counter (Aloka Co., Ltd., LSC-3500). A relative value to 100% of an uptake of a control was indicated by percentage.

[2] = system: restraint stress-induced defecation; assay: Action on restraint stress-induced defecation; assay type: in vivo, male Wistar rats; conditions: measured 1 hour after stress initiation, rats
Method: An experiment was carried out according to the method of Kishibayashi et al. [Japanese Journal of Pharmacology, Vol. 69, No. 4, pp. 495-502 (1993)]. In the experiment, male Wistar rats aged 6 to 7 weeks (supplied from Charles River Laboratories Japan, Inc.) were used. […] The rats were lightly anesthetized with diethyl ether, and the thoracic trunk and the forelimbs were wrapped with a tape to produce mild stress. One hour after stress initiation, the wet weight of fecal pellets was measured. Each drug solution was orally administered 1 hour before restraint stress. A test compound was suspended at a concentration of 2 mg/mL in an aqueous solution of 0.5 w/v % methyl cellulose 400 cP and orally administered at a volume of 5 mL/kg (at a dose of 10 mg/kg). In a control, an aqueous solution of 0.5 w/v % methyl cellulose 400 cP was administered. Ten rats were used in each group. […] YM060, a serotonin 5-HT3 receptor antagonist [The Journal of Pharmacology and Experimental Therapeutics, Vol. 259, No. 2, pp. 815-819 (1991), Astellas Pharma. Inc., online, internet (URL: […].com/jp/companry/news/2006/pdf/060131.pdf)], which is being applied as a therapeutic agent for irritable bowel syndrome, was administered at a dose of 0.1 mg/kg.

[3] = Homo sapiens, 1 min, [3H]adenosine uptake relative to 100% of control, HEK293 cells
[4] = 10 mg/kg p.o. 1 hour before restraint stress, n=10, control of each sub-table 1.06-1.71 g
[5] = 300 mg/kg p.o. 1 hour before restraint stress

Structure (SMILES): O=C(CC(O)(C(F)(F)F)C(F)(F)F)Nc1cccc2c1C(=O)c1sccc1CS2(=O)=O [Compound 1-2]
- activity at 0.05 µM [1, 3]: 39%
- activity at 0.5 µM [1, 3]: 17%
- Wet weight of fecal pellets [2, 4]: 0.78 ± 0.25 g

Structure (SMILES): CCC(O)(CC)C(=O)Nc1cccc2c1C(=O)c1sccc1CS2(=O)=O [Compound 1-4, 5,5-Dioxo-9-(2-ethyl-2-hydroxybutanoylamino)-4,10-dihydrothieno[3,2-c][1]benzothiepin-10-one]
- activity at 0.05 µM [1, 3]: 73%
- activity at 0.5 µM [1, 3]: 34%
- Wet weight of fecal pellets [2, 4]: 0.44 ± 0.19 g

Structure (SMILES): CC(C)(C)C(=O)Nc1cccc2c1C(=O)c1sccc1CS2(=O)=O [Compound 1-5]
- activity at 0.05 µM [1, 3]: 90%
- activity at 0.5 µM [1, 3]: 55%
- Wet weight of fecal pellets [2, 4]: 0.97 ± 0.16 g

Structure (SMILES): CCOC(=O)Nc1cccc2c1C(=O)c1sccc1CS2(=O)=O [Compound 1-6]
- activity at 0.05 µM [1, 3]: 89%
- activity at 0.5 µM [1, 3]: 68%
- Wet weight of fecal pellets [2, 4]: 0.31 ± 0.06 g

Structure (SMILES): O=C(Nc1cccc2c1C(=O)c1sccc1CS2(=O)=O)c1cc(Cl)ccc1O [Compound 1-7]
- activity at 0.05 µM [1, 3]: 74%
- activity at 0.5 µM [1, 3]: 35%
- Wet weight of fecal pellets [2, 4]: 0.59 ± 0.12 g

Structure (SMILES): O=C(Nc1cccc2c1C(=O)c1sccc1CS2(=O)=O)c1ccco1 [Compound 1-8]
- activity at 0.05 µM [1, 3]: 79%
- activity at 0.5 µM [1, 3]: 44%
- Wet weight of fecal pellets [2, 4]: 0.66 ± 0.12 g

Structure (SMILES): Cc1cc(C(=O)Nc2cccc3c2C(=O)c2sccc2CS3(=O)=O)[nH]n1 [Compound 1-9, 5,5-Dioxo-9-[(5-methylpyrazol-3-ylcarbonyl)amino]-4,10-dihydrothieno[3,2-c][1]benzothiepin-10-one]
- activity at 0.05 µM [1, 3]: 62%
- activity at 0.5 µM [1, 3]: 26%
- Wet weight of fecal pellets [2, 4]: 0.39 ± 0.18 g

Structure (SMILES): CC(=O)C(C)(C)C(=O)Nc1cccc2c1C(=O)c1sccc1CS2(=O)=O [Compound 1-10, 5,5-Dioxo-9-(2,2-dimethyl-3-oxobutanoylamino)-4,0-dihydrothieno[3,2-c][1]benzothiepin-10-one]
- activity at 0.05 µM [1, 3]: 94%
- activity at 0.5 µM [1, 3]: 63%

Structure (SMILES): O=C1c2sccc2CS(=O)(=O)c2cccc(NC(=O)C(O)C(F)(F)F)c21 (stereo not shown) [Compound 1-11, 5,5-Dioxo-9-(2-hydroxy-3,3,3-trifluoropropanoylamino)-4,10-dihydrothieno[3,2-c][1]benzothiepin-10-one]
- activity at 0.05 µM [1, 3]: 82%
- activity at 0.5 µM [1, 3]: 46%

Structure (SMILES): CC(O)(C(=O)Nc1ccc(F)c2c1C(=O)c1sccc1CS2(=O)=O)C(F)(F)F (stereo not shown) [Compound 3-1]
- activity at 0.05 µM [1, 3]: 96%
- activity at 0.5 µM [1, 3]: 63%
- Wet weight of fecal pellets [2, 4]: 0.41 ± 0.16 g

Structure (SMILES): CC(O)(C(=O)Nc1ccc(Cl)c2c1C(=O)c1sccc1CS2(=O)=O)C(F)(F)F (stereo not shown) [Compound 3-2]
- Wet weight of fecal pellets [2, 4]: 0.53 ± 0.14 g

Structure (SMILES): CC(O)(C(=O)Nc1ccc(Br)c2c1C(=O)c1sccc1CS2(=O)=O)C(F)(F)F (stereo not shown) [Compound 3-3, 6-Bromo-5,5-dioxo-9-(3,3,3-trifluoro-2-hydroxy-2-methylpropanoylamino)-4,10-dihydrothieno[3,2-c][1]benzothiepin-10-one]
- Wet weight of fecal pellets [2, 4]: 0.81 ± 0.22 g

Structure (SMILES): Cc1ccc(NC(=O)C(C)(O)C(F)(F)F)c2c1S(=O)(=O)Cc1ccsc1C2=O (stereo not shown) [Compound 3-4]
- activity at 0.05 µM [1, 3]: 71%
- activity at 0.5 µM [1, 3]: 41%
- Wet weight of fecal pellets [2, 4]: 0.67 ± 0.19 g

Structure (SMILES): O=C1c2sccc2CS(=O)(=O)c2cccc(Nc3ccccc3)c21 [Compound 5-1, 5,5-Dioxo-9-phenylamino-4,10-dihydrothieno[3,2-c][1]benzothiepin-10-one]
- activity at 0.05 µM [1, 3]: 91%
- activity at 0.5 µM [1, 3]: 60%
- Wet weight of fecal pellets [2, 4]: 0.36 ± 0.16 g

Structure (SMILES): O=C1c2sccc2CS(=O)(=O)c2cccc(Nc3cc(Cl)ccc3O)c21 [Compound 5-2, 9-(5-Chloro-2-hydroxyphenylamino)-5,5-dioxo-4,10-dihydrothieno[3,2-c][1]benzothiepin-10-one]
- activity at 0.05 µM [1, 3]: 80%
- activity at 0.5 µM [1, 3]: 44%
- Wet weight of fecal pellets [2, 4]: 0.46 ± 0.18 g

Structure (SMILES): O=C1c2sccc2CS(=O)(=O)c2cccc(NCc3ccccc3)c21 [Compound 5-3, 9-Benzylamino-5,5-dioxo-4,10-dihydrothieno[3,2-c][1]benzothiepin-10-one]
- activity at 0.05 µM [1, 3]: 63%
- activity at 0.5 µM [1, 3]: 30%
- Wet weight of fecal pellets [2, 4]: 0.41 ± 0.17 g

Structure (SMILES): COc1ccccc1CNc1cccc2c1C(=O)c1sccc1CS2(=O)=O [Compound 5-4, 5,5-Dioxo-9-(2-methoxybenzylamino)-4,10-dihydrothieno[3,2-c][1]benzothiepin-10-one]
- activity at 0.05 µM [1, 3]: 72%
- activity at 0.5 µM [1, 3]: 42%

Structure (SMILES): CCOC(=O)CNc1cccc2c1C(=O)c1sccc1CS2(=O)=O [Compound 5-5, 5,5-Dioxo-9-ethoxycarbonylmethylamino-4,10-dihydrothieno[3,2-c][1]benzothiepin-10-one]
- activity at 0.05 µM [1, 3]: 98%
- activity at 0.5 µM [1, 3]: 68%

Structure (SMILES): CCOC(=O)C(C)Nc1cccc2c1C(=O)c1sccc1CS2(=O)=O (stereo not shown) [Compound 5-6, 5,5-Dioxo-9-[1-(ethoxycarbonyl)ethylamino]-4,10-dihydrothieno[3,2-c][1]benzothiepin-10-one]
- activity at 0.05 µM [1, 3]: 80%
- activity at 0.5 µM [1, 3]: 50%

Structure (SMILES): COC(=O)C(CC(C)C)Nc1cccc2c1C(=O)c1sccc1CS2(=O)=O (stereo not shown) [Compound 5-7, 5,5-Dioxo-9-{[1-(methoxycarbonyl)-3-methylbutyl]amino}-4,10-dihydrothieno[3,2-c][1]benzothiepin-10-one]
- activity at 0.05 µM [1, 3]: 67%
- activity at 0.5 µM [1, 3]: 30%

Structure (SMILES): COC(=O)C(Cc1ccccc1)Nc1cccc2c1C(=O)c1sccc1CS2(=O)=O (stereo not shown) [Compound 5-8, 5,5-Dioxo-9-{[1-(methoxycarbonyl)-2-phenylethyl]amino}-4,10-dihydrothieno[3,2-c][1]benzothiepin-10-one]
- activity at 0.05 µM [1, 3]: 92%
- activity at 0.5 µM [1, 3]: 69%

Structure (SMILES): O=C1c2sccc2CS(=O)(=O)c2cccc(SCc3ccccc3)c21 [Compound 6-1, 9-Benzylthio-5,5-dioxo-4,10-dihydrothieno[3,2-c][1]benzothiepin-10-one]
- activity at 0.05 µM [1, 3]: 75%
- activity at 0.5 µM [1, 3]: 39%

Structure (SMILES): O=C1c2sccc2CS(=O)(=O)c2cccc(OCc3ccccc3)c21 [Compound 6-2, 9-Benzyloxy-5,5-dioxo-4,10-dihydrothieno[3,2-c][1]benzothiepin-10-one]
- activity at 0.05 µM [1, 3]: 94%
- activity at 0.5 µM [1, 3]: 73%

Structure (SMILES): COc1cc(C(=O)OCCCN2CCCN(CCCOC(=O)c3cc(OC)c(OC)c(OC)c3)CC2)cc(OC)c1OC [Dilazep, reference compound]
- Wet weight of fecal pellets [2, 5]: 0.84 ± 0.17 g

Structure (SMILES): OCCN(CCO)c1nc(N2CCCCC2)c2nc(N(CCO)CCO)nc(N3CCCCC3)c2n1 [Dipyridamole, reference compound]
- Wet weight of fecal pellets [2, 5]: 0.59 ± 0.15 g

Structure (SMILES): NC(=O)C1CN(CCCCC(c2ccc(F)cc2)c2ccc(F)cc2)CCN1CC(=O)Nc1c(Cl)cc(N)cc1Cl (stereo not shown) [Draflazine, reference compound]
- Wet weight of fecal pellets ([2]; 100 mg/kg p.o. 1 hour before restraint stress, control 1.06 ± 0.11 g): 0.43 ± 0.13 g

Structure (SMILES): CCOc1cc2nc(N3CCOCC3)nc(N3CCC(n4c(=O)c5cc(C)ccc5n(C)c4=O)CC3)c2cc1OCC [KF24345, reference compound]
- Wet weight of fecal pellets [2, 4]: 0.48 ± 0.14 g

Structure (SMILES): O=[N+]([O-])c1ccc(CSc2ncnc3c2ncn3C2OC(CO)C(O)C2O)cc1 (stereo not shown) [Nitrobenzylthioinosine, S6-(4-nitrobenzyl)mercaptopurine riboside, reference compound]
- adenosine uptake in HEK293 cells (in words) ([1]; 100 nmol/L, concentration at which only ENT-1 is inhibited): almost completely inhibited
- activity at 0.1 µM ([1]; Homo sapiens, 1 min, 100 nmol/L compound, [3H]adenosine uptake relative to 100% of control, HEK293 cells): 8%
- activity at 0.5 µM [1, 3]: 4%

Structure (SMILES): Cn1cc(C(=O)[C@@H]2CCc3nc[nH]c3C2)c2ccccc21 [YM060, reference compound]
- Wet weight of fecal pellets ([2]; 0.1 mg/kg 1 hour before restraint stress, control 1.24 ± 0.23 g): 0.43 ± 0.11 g
